The test concerns HMPV clinical isolate A2 strain TN 94-49. As to the kind of experiment: HMPV antiviral assay, Method 1 (LLC-MK2 cells, ATP-Lite). The class given is cell-based. The conditions noted are these: human metapneumovirus, hMPV A2 TN/94-49, LLC-MK2 cells. On the procedure:
In vitro HMPV antiviral activity was evaluated using the clinical isolate A2 strain TN 94-49 (obtained from Dr. John Williams, Vanderbilt University, Tennessee) and LLC-MK2 cells (ATCC #CCL-7), an immortalized kidney epithelial cell line from Macaca mulatta. Compounds were resuspended in dimethyl sulfoxide (DMSO) at 10 mM, serially diluted and added to a 384-well source plate. Subsequently, the compounds were diluted and transferred onto 384-well assay plates using the Echo-650 automated liquid handling system (Beckman Coulter, Indiana). The test compounds were assessed in duplicate at a top concentration of 2 μM followed by 2.5-fold serial dilutions to give a total of 10 concentration points. DMSO control wells were also included on the assay plates and were either infected or not, acting as positive and negative controls. A2 TN 94-49 virus infections were performed in-suspension with LLC-MK2 cells. The cells were washed twice with PBS and removed from the cell-culture flask with 0.25% trypsin-EDTA (Thermo Fisher Scientific, MA). The trypsin-EDTA was inactivated by resuspending in 2% fetal bovine serum (FBS) and OptiMEM (ThermoFisher Scientific, MA) containing 1% penicillin-streptomycin. Cells were pelleted by centrifuging for 5 minutes at 800 rpm, the supernatant was removed, and cells were re-suspended and washed in PBS plus 100 μg/mL CaCl2). This step was performed twice. Cells were then re-suspended in serum-free (SF)-OptiMEM containing 4 μg/mL TPCK-Trypsin (Sigma Aldrich, MO), 1% penicillin-streptomycin (ThermoFisher Scientific, MA) and 100 μg/mL CaCl2). Cells were counted and seeded at a density of 5,000 cells/well, 12.5 μL/well. Virus infections were done at a multiplicity of infection (MOI) of 0.005 with 12.5 μL added per well. Virus infections were performed in infection media which contained SF-OptiMEM, 100 μg/mL CaCl2) and 1% penicillin-streptomycin. HMPV viral stocks are suspended in infection media+5% glycerol, thus an equal volume of infection media+5% glycerol was added to uninfected wells to equalize the final % glycerol across all wells of the assay plate. The final concentration of TPCK-trypsin was 2 μg/mL. The assay plates were incubated at 37° C., 5% CO2 for 7 days. After 7 days incubation, 12.5 μL of ATP-Lite (PerkinElmer, MA) was added to each well and the raw luminescence values were determined using the Envision 2104 (Perkin Elmer, MA). The average of the raw luminescence values for the cells and virus only positive control wells was subtracted from all conditions tested and the percent cell health was determined by dividing these values by the average of the cells only negative control wells. EC50 values were then calculated by non-linear regression using a four-parameter curve logistic equation. The curve fit model employed was XLFit Dose Response One Site Model 200: y=(A+(B/(1+((x/C)^D)))), where A is the minimum y value, B is the maximum y value, C is the log EC50 value, and D is the slope factor.

36 compounds from patent publication US20240368174A1, “Antiviral Heterocyclic Compounds” (Enanta Pharmaceuticals, Inc., priority 2023, published 2024) can be followed below.

In turn, `COc1cc(C(=O)NC[C@@](O)(c2cc3c(c(-c4cc(Cl)c(F)cc4F)n2)OC[C@]3(C)C(N)=O)c2cc(C)cs2)cc2cn(C3CC3)nc12` [Example 466] came in with a concentration giving a half-maximal response (EC50) of over 500 nM.

Turning to `COc1cc(C(=O)NC[C@@](O)(c2ccc(F)cc2)c2cc3c(c(-c4ccc(F)c(Cl)c4Cl)n2)OC[C@]3(C)C(N)=O)cc2cn(C(F)F)nc12` [Example 42], the 50% effective concentration (EC50) was under 500 nM.

`COc1cc(C(=O)NC[C@](O)(c2cc3c(c(-c4cc(Cl)c(F)cc4F)n2)OC[C@]3(C)C(N)=O)c2ccccc2F)cc2cn(C3CC3)nc12` [Example 136]: the concentration giving a half-maximal response (EC50) is under 500 nM.

As for `COc1cc(C(=O)NC[C@](O)(c2cc3c(c(-c4cc(F)c(F)cc4F)n2)OC[C@]3(C)C(N)=O)C2(O)CC2)cc2cn(C3CC3)nc12` [Example 215], the EC50 was over 500 nM.

The compound `COc1cc(C(=O)NC[C@@](O)(c2ccccc2)c2cc3c(c(-c4cc(Cl)c(F)cc4F)n2)OC[C@]3(C)C(=O)NC2CC2)cc2cn(C3CC3)nc12` [Example 143] displayed an EC50 of under 500 nM.

For the compound `COc1cc(C(=O)NC[C@@](O)(c2cccc(F)c2)c2cc3c(c(-c4ccc5c(c4Cl)OC(F)(F)O5)n2)OC[C@]3(C)C(N)=O)cc2cn(C3CC3)nc12` [Example 274], the EC50 was under 500 nM.

For `COc1cc(C(=O)NC[C@](O)(c2cc3c(c(-c4cccc(SC(F)(F)F)c4)n2)OC[C@]3(C)C(N)=O)C2CC2)cc2cn(C3CC3)nc12` [Example 36], the EC50 is over 500 nM.

Consider `COc1cc(C(=O)NC[C@@](O)(c2ccccc2)c2cc3c(c(-c4ccc5c(c4Cl)OC(F)(F)O5)n2)OC[C@]3(C)C(N)=O)cc2cn(C3(F)CC3)nc12` [Example 255], for which the EC50 was under 500 nM.

`[2H]c1c([2H])c([2H])c([C@](O)(CNC(=O)c2cc(OC)c3nn(C4CC4)cc3c2)c2cc3c(c(-c4cc(Cl)c(F)cc4F)n2)OC[C@]3(C)C(N)=O)c([2H])c1[2H]` [Example 169]: the half-maximal effective concentration (EC50) was under 500 nM.

In the case of `COc1cc(C(=O)NC[C@@](O)(c2ccc(F)cc2)c2cc3c(c(-c4ccc(F)c(Cl)c4Cl)n2)OC[C@]3(C)C(N)=O)cc2cc(Cl)c(C)nc12` [Example 44], the concentration giving a half-maximal response (EC50) was under 500 nM.

`COc1cc(C(=O)NC[C@](O)(c2cc3c(c(-c4cc(F)c(F)cc4F)n2)OC[C@]3(C)C(N)=O)C2CC2)cc2cc(C(F)(F)F)cnc12` [Example 46] gave a half-maximal effective concentration (EC50) of over 500 nM.

Compound `COc1cc(C(=O)NC[C@@](O)(c2cc3c(c(-c4cc(Cl)c(F)cc4F)n2)OC[C@]3(C)C(N)=O)c2cnn[nH]2)cc2cn(C3CC3)nc12` [Example 181] registered an EC50 of over 500 nM.

Regarding `COc1cc(C(=O)NC[C@@](O)(c2ccsc2)c2cc3c(c(-c4cc(F)c(F)cc4F)n2)OC[C@]3(C)C(N)=O)cc2cn(C(F)F)nc12` [Example 178], the concentration for a half-maximal effect (EC50) is under 500 nM.

`C[C@]1(C(N)=O)COc2c1cc([C@@](O)(CNC(=O)c1cc(OC3CC3)c3nn(C4CC4)cc3c1)c1ccccc1)nc2-c1ccc2c(c1Cl)OC(F)(F)O2` [Example 252] returned an EC50 of under 500 nM.

In turn, `[2H]C([2H])([2H])c1cc2cc(C(=O)NC[C@](O)(c3cc4c(c(-c5ccc(F)c(Cl)c5)n3)OC[C@]4(C)C(N)=O)C(F)(F)F)cc(OC)c2nc1C` [Example 20] returned an EC50 of over 500 nM.

With `C[C@]1(C(N)=O)COc2c1cc([C@@](O)(CNC(=O)c1ccc3nc(C(F)(F)F)oc3c1)c1ccccc1)nc2-c1cc(Cl)c(F)cc1F` [Example 82], the concentration for a half-maximal effect (EC50) was over 500 nM.

In turn, `Cc1nc2ccc(C(=O)NC[C@@](O)(c3cccc(F)c3)c3cc4c(c(-c5ccc6c(c5Cl)OC(F)(F)O6)n3)OC[C@]4(C)C(N)=O)cc2o1` [Example 284] came in with an EC50 of under 500 nM.

The compound `COc1cc(C(=O)NC[C@](O)(c2cc3c(c(-c4cc(Cl)c(Cl)cc4Cl)n2)OC[C@]3(C)C(N)=O)C2CC2)cc2cn(C3CC3)nc12` [Example 62] displayed a 50% effective concentration (EC50) of over 500 nM.

In turn, `COc1cc(C(=O)NC[C@@](O)(c2ccccc2)c2cc3c(c(-c4cc(Cl)c(F)cc4F)n2)OC[C@]3(C)C(N)=O)cc2cc(Cl)c(C)nc12` [Example 159] had an EC50 of under 500 nM.

Turning to `COc1cc(C(=O)NC[C@@](O)(c2ccccc2)c2cc3c(c(-c4cc(C(F)F)c(F)cc4F)n2)OC[C@]3(C)C(N)=O)cc2cn(C3CC3)nc12` [Example 288], the EC50 is under 500 nM.

`COc1cc(C(=O)NC[C@](O)(c2cc3c(c(-c4cccc(S(F)(F)(F)(F)F)c4)n2)OC[C@]3(C)C(N)=O)C(F)(F)F)cc2cn(C3CC3)nc12` [Example 54] had a concentration for a half-maximal effect (EC50) of over 500 nM.

With `COc1cc(C(=O)NC[C@@](O)(c2ccccc2)c2cc3c(c(-c4cccc(Cl)c4Cl)n2)OC[C@]3(C)C(N)=O)cc2cn(C(F)F)nc12` [Example 261], the EC50 was under 500 nM.

In turn, `COc1cc(C(=O)NC[C@](O)(c2cc3c(c(-c4cc(C(F)(F)F)ccc4C)n2)OC[C@]3(C)C(N)=O)C2CC2)cc2cn(C3CC3)nc12` [Example 53] showed a half-maximal effective concentration (EC50) of under 500 nM.

The compound `COc1ccc([C@](O)(CNC(=O)c2cc(OC)c3nn(C(F)F)cc3c2)c2cc3c(c(-c4cc(Cl)c(F)cc4F)n2)OC[C@]3(C)C(N)=O)cc1` [Example 167] had a concentration for a half-maximal effect (EC50) of under 500 nM.

In the case of `COc1cc(C(=O)NC[C@@](O)(c2cc3c(c(-c4cc(F)c(F)c(F)c4Cl)n2)OC[C@]3(C)C(N)=O)C(F)(F)F)cc2cn(C3CC3)nc12` [Example 58], the EC50 was over 500 nM.

Take `COc1cc(C(=O)NC[C@@](O)(c2ccccc2)c2cc3c(c(-c4cc(C(F)(F)F)ccc4F)n2)OC[C@]3(C)C(N)=O)cc2cn(C(F)F)nc12` [Example 148]: the EC50 was under 500 nM.

Turning to `COc1cc(C(=O)NC[C@@](O)(c2ccccc2)c2cc3c(c(-c4cc(Cl)c(F)cc4F)n2)OC[C@]3(C)C(N)=O)cc2cc(C)cnc12` [Example 80], the concentration giving a half-maximal response (EC50) is under 500 nM.

`COc1cc(C(=O)NC[C@](O)(c2cc3c(c(-c4cc(Cl)c(C)cc4F)n2)OC[C@]3(C)C(N)=O)C2CC2)cc2cn(C3CC3)nc12` [Example 51] returned an EC50 of over 500 nM.

In turn, `[2H]c1nc2c(OC(F)F)cc(C(=O)NC[C@@](O)(c3ccccc3)c3cc4c(c(-c5cc(Cl)c(F)cc5F)n3)OC[C@]4(C)C(N)=O)cc2cc1C([2H])([2H])[2H]` [Example 217] displayed a concentration for a half-maximal effect (EC50) of under 500 nM.

Regarding `COc1cc(C(=O)NC[C@@](O)(c2ccccc2)c2cc3c(c(-c4ccc(F)c(Cl)c4Cl)n2)OC[C@]3(C)C(N)=O)cc2cn(C3CC3)nc12` [Example 257], the EC50 is under 500 nM.

`C[C@]1(C(N)=O)COc2c1cc([C@@](O)(CNC(=O)c1cc(OC3CC3)c3nn(C4CC4)cc3c1)C1CC1)nc2-c1cc(Cl)c(F)cc1F` [Example 2] registered an EC50 of under 500 nM.

Regarding `C[C@]1(C(N)=O)COc2c1cc([C@@](O)(CNC(=O)c1cc(OC(F)F)c3nn(C4CC4)cc3c1)C1CC1)nc2-c1ccc(F)c(F)c1Cl` [Example 39], the EC50 is under 500 nM.

For the compound `Cc1nc2ccc(C(=O)NC[C@@](O)(c3ccccc3)c3cc4c(c(-c5ccc(F)c(Cl)c5Cl)n3)OC[C@]4(C)C(N)=O)cc2o1` [Example 267], the EC50 was under 500 nM.

`COc1cc(C(=O)NC[C@](O)(c2cc3c(c(-c4cc(F)c(F)c(F)c4Cl)n2)OC[C@]3(C)C(N)=O)C(F)(F)F)cc2cn(C3CC3)nc12` [Example 59] returned an EC50 of under 500 nM.

`[2H]C([2H])([2H])c1nc2c(OC)cc(C(=O)NC[C@@](O)(c3ccccc3)c3cc4c(c(-c5cc(Cl)c(F)cc5F)n3)OC[C@]4(C)C(N)=O)cc2s1` [Example 155] returned an EC50 of under 500 nM.

Take `[2H]C([2H])([2H])c1nc2c(OC)cc(C(=O)NC[C@@](O)(c3cccc(F)c3)c3cc4c(c(-c5ccc(F)c(Cl)c5Cl)n3)OC[C@]4(C)C(N)=O)cc2s1` [Example 272]: the EC50 is under 500 nM.
